In patent publication US12503475B2 (Centessa Pharmaceuticals (UK) Limited, priority 2020, dated 2025):
Where two headings read alike, the source gives them in different places.

Molecular target: T1, human orexin type 2 receptor (hOX2R) (Homo sapiens, UniProt O43614)
T1 construct: expressed in transfected cells
T1 sequence (O43614 1-444): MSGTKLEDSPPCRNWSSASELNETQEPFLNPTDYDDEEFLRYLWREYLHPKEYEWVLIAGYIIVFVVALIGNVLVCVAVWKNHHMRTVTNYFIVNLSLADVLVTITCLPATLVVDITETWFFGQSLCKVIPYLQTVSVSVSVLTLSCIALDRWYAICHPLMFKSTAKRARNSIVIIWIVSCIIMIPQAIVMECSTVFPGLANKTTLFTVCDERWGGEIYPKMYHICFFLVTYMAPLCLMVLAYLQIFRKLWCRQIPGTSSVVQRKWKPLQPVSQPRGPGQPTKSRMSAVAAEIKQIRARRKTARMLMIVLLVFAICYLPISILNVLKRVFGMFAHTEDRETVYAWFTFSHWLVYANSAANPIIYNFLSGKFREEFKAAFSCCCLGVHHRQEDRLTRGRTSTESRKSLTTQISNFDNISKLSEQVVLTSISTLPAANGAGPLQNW
Test: Measurement of orexin type 2 receptor agonist activity (FLIPR calcium fluorescence)
Format: cell-based
Conditions: for EC50: read-out: hOx2 pEC50 (converted); for Emax: CHO, read-out: hOx2 Emax (%)
Summary of the method: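 Agonism was read as fluorescence in cells stably expressing human OX2R. E. is the response at 10 μM relative to orexin A as full agonist (100%).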

[1] = CHO cells expressing hOX2R, FLIPR calcium fluorescence

SMILES	EC50 [1]	Emax [1]	Emax
CS(=O)(=O)N[C@@H]1[C@H](Cc2cccc(-c3ccccc3)c2F)N(C(=O)N2CC[C@H]2CF)CC12CC2 [Compound 80, N-((6S,7S)-6-((2-fluoro-[1,1′-biphenyl]-3-yl)methyl)-5-((S)-2-(fluoromethyl)azetidine-1-carbonyl)-5-azaspiro[2.4]heptan-7-yl)methanesulfonamide]	0.0794 to 1 nM	90 to 100%	
O=C(NCC(F)F)N1CC2(CC2)[C@H](NS(=O)(=O)CF)[C@@H]1Cc1cc(F)cc(-c2ccccc2)c1F [Compound 191, (6S,7S)-6-((2,5-difluoro-[1,1′-biphenyl]-3-yl)methyl)-N-(2,2-difluoroethyl)-7-((fluoromethyl)sulfonamido)-5-azaspiro[2.4]heptane-5-carboxamide]	1 to 10 nM	90 to 100%	
O=C([C@H](O)CF)N1CC2(CC2)[C@H](NS(=O)(=O)C(F)F)[C@@H]1Cc1cc(F)cc(-c2cc(F)cc(F)c2)c1F [Compound 221, 1,1-difluoro-N-((6S,7S)-5-((S)-3-fluoro-2-hydroxypropanoyl)-6-((2,3′,5,5′-tetrafluoro-[1,1′-biphenyl]-3-yl)methyl)-5-azaspiro[2.4]heptan-7-yl)methanesulfonamide]	1 to 10 nM		90 to 100%
CS(=O)(=O)N[C@@H]1[C@H](Cc2cccc(-c3ccccc3)c2)N(C(=O)C2(O)CCC2)CC12CC2 (racemic) [Compound 298]	1 to 10 nM	90 to 100%	
COCCN(C)C(=O)N1CC2(CC2)[C@H](NS(C)(=O)=O)[C@@H]1Cc1cccc(-c2ccccc2)c1F [Compound 326, (6S,7S)-6-((2-fluoro-[1,1′-biphenyl]-3-yl)methyl)-N-(2-methoxyethyl)-N-methyl-7-(methylsulfonamido)-5-azaspiro[2.4]heptane-5-carboxamide]	1 to 10 nM	90 to 100%	
CCS(=O)(=O)N[C@@H]1[C@H](Cc2cc(F)cc(-c3cc(F)cc(F)c3)c2F)N(C(=O)[C@H]2CCO2)CC12CC2 [Compound 407, N-((6S,7S)-5-((R)-oxetane-2-carbonyl)-6-((2,3′,5,5′-tetrafluoro-[1,1′-biphenyl]-3-yl)methyl)-5-azaspiro[2.4]heptan-7-yl)ethanesulfonamide]	1 to 10 nM	90 to 100%	
C[C@@H](F)C(=O)N1CC2(CC2)[C@H](NS(=O)(=O)C(F)F)[C@@H]1Cc1cc(F)cc(-c2cc(F)cc(F)c2)c1F [Compound 406, 1,1-difluoro-N-((6S,7S)-5-((R)-2-fluoropropanoyl)-6-((2,3′,5,5′-tetrafluoro-[1,1′-biphenyl]-3-yl)methyl)-5-azaspiro[2.4]heptan-7-yl)methanesulfonamide]	0.0794 to 1 nM	90 to 100%	
O=C([C@H]1CCO1)N1CC2(CC2)[C@H](NS(=O)(=O)C2CC2)[C@@H]1Cc1cccc(-c2ccccc2)c1F [Compound 69, N-((6S 7S)-6-((2-fluoro-[1,1′-biphenyl]-3-yl)methyl)-5-((R)-oxetane-2-carbonyl)-5-azaspiro[2.4]heptan-7-yl)cyclopropanesulfonamide]	0.0794 to 1 nM	90 to 100%	
C[C@@H](F)C(=O)N1CC2(CC2)[C@H](NS(=O)(=O)C(F)F)[C@@H]1Cc1cccc(-c2cc(F)cc(F)c2)c1F [Compound 378, 1,1-difluoro-N-((6S,7S)-5-((R)-2-fluoropropanoyl)-6-((2,3′,5′-trifluoro-[1,1′-biphenyl]-3-yl)methyl)-5-azaspiro[2.4]heptan-7-yl)methanesulfonamide]	0.0794 to 1 nM	90 to 100%	
O=C(NC[C@@H]1CCO1)N1CC2(CC2)[C@H](NS(=O)(=O)CF)[C@@H]1Cc1cccc(-c2ccccc2)c1F [Compound 374, (6S,7S)-6-((2-fluoro-[1,1′-biphenyl]-3-yl)methyl)-7-((fluoromethyl)sulfonamido)-N-(((S)-oxetan-2-yl)methyl)-5-azaspiro[2.4]heptane-5-carboxamide]	1 to 10 nM	90 to 100%	
CS(=O)(=O)N[C@@H]1[C@H](Cc2cccc(-c3ccccc3)c2F)N(C(=O)N2CC(F)(F)C2)CC12CC2 [Compound 87, N-((6S,7S)-5-(3,3-difluoroazetidine-1-carbonyl)-6-((2-fluoro-[1,1′-biphenyl]-3-yl)methyl)-5-azaspiro[2.4]heptan-7-yl)methanesulfonamide]	10 to 100 nM	90 to 100%	
CS(=O)(=O)N[C@@H]1[C@H](Cc2cccc(-c3ccccc3)c2F)N(C(=O)NCC2(F)CC2)CC12CC2 [Compound 104, (6S,7S)-6-((2-fluoro-[1,1′-biphenyl]-3-yl)methyl)-N-((1-fluorocyclopropyl)methyl)-7-(methylsulfonamido)-5-azaspiro[2.4]heptane-5-carboxamide]	1 to 10 nM	90 to 100%	
COC[C@H](O)C(=O)N1CC2(CC2)[C@H](NS(=O)(=O)C(F)F)[C@@H]1Cc1cccc(-c2ccccc2)c1F [Compound 183, 1,1-difluoro-N-((6S,7S)-6-((2-fluoro-[1,1′-biphenyl]-3-yl)methyl)-5-((S)-2-hydroxy-3-methoxypropanoyl)-5-azaspiro[2.4]heptan-7-yl)methanesulfonamide]	1 to 10 nM	90 to 100%	
CC(C)(O)C(=O)N1CC2(CC2)[C@H](NS(=O)(=O)CF)[C@@H]1Cc1cc(F)cc(-c2cc(F)cc(F)c2)c1F [Compound 419, 1-fluoro-N-((6S,7S)-5-(2-hydroxy-2-methylpropanoyl)-6-((2,3′,5,5′-tetrafluoro-[1,1′-biphenyl]-3-yl)methyl)-5-azaspiro[2.4]heptan-7-yl)methanesulfonamide]	1 to 10 nM	90 to 100%	
C[C@@H](C#N)S(=O)(=O)N[C@@H]1[C@H](Cc2cccc(-c3ccccc3)c2)N(C(=O)[C@H]2CCO2)CC12CC2 [Compound 338, (S)-N-((6S,7S)-6-([1,1′-biphenyl]-3-ylmethyl)-5-((R)-oxetane-2-carbonyl)-5-azaspiro[2.4]heptan-7-yl)-1-cyanoethane-1-sulfonamide]	10 to 100 nM	90 to 100%	
O=C([C@@H](O)C1CC1)N1CC2(CC2)[C@H](NS(=O)(=O)C(F)F)[C@@H]1Cc1cc(F)cc(-c2cc(F)cc(F)c2)c1F [Compound 384, N-((6S,7S)-5-((S)-2-cyclopropyl-2-hydroxyacetyl)-6-((2,3′,5,5′-tetrafluoro-[1,1′-biphenyl]-3-yl)methyl)-5-azaspiro[2.4]heptan-7-yl)-1,1-difluoromethanesulfonamide]	1 to 10 nM	90 to 100%	
C[C@]1(C(=O)N2CC3(CC3)[C@H](NS(=O)(=O)CF)[C@@H]2Cc2cccc(-c3ccccc3)c2F)CCO1 [Compound 202, 1-fluoro-N-((6S,7S)-6-((2-fluoro-[1,1′-biphenyl]-3-yl)methyl)-5-((R)-2-methyloxetane-2-carbonyl)-5-azaspiro[2.4]heptan-7-yl)methanesulfonamide]	1 to 10 nM	90 to 100%	
CS(=O)(=O)N[C@@H]1[C@H](Cc2cccc(-c3ccccc3)c2F)N(C(=O)NC23CC(F)(C2)C3)CC12CC2 [Compound 319, (6S,7S)-6-((2-fluoro-[1,1′-biphenyl]-3-yl)methyl)-N-(3-fluorobicyclo[1.1.1]pentan-1-yl)-7-(methylsulfonamido)-5-azaspiro[2.4]heptane-5-carboxamide]	10 to 100 nM	90 to 100%	
CS(=O)(=O)NC1C(Cc2cccc(-c3ccccc3)c2)N(C(=O)C23CC2C3)CC12CC2 (racemic) [Compound 66, N-(6-([1,1′-biphenyl]-3-ylmethyl)-5-(bicyclo[1.1.0]butane-1-carbonyl)-5-azaspiro[2.4]heptan-7-yl)methanesulfonamide]	10 to 100 nM	90 to 100%	
CCS(=O)(=O)N[C@@H]1[C@H](Cc2cccc(-c3cccc(F)c3)c2F)N(C(=O)C(C)(C)O)CC12CC2 [Compound 184, N-((6S,7S)-6-((2,3′-difluoro-[1,1′-biphenyl]-3-yl)methyl)-5-(2-hydroxy-2-methylpropanoyl)-5-azaspiro[2.4]heptan-7-yl)ethanesulfonamide]	1 to 10 nM	90 to 100%	
CS(=O)(=O)NC1C(Cc2cccc(-c3ccccc3)c2)N(C(=O)N2CC(F)(F)C2)CC12CC2 (racemic) [Compound 10, N-(6-([1,1′-biphenyl]-3-ylmethyl)-5-(3,3-difluoroazetidine-1-carbonyl)-5-azaspiro[2.4]heptan-7-yl)methanesulfonamide]	100 to 1000 nM	90 to 100%	
C[C@H]1C[C@@H]1S(=O)(=O)N[C@H]1[C@@H](Cc2cccc(-c3ccccc3)c2)N(C(=O)[C@H]2CCO2)CC12CC2 (relative stereo) [Compound 312, (1S*,2S*)-N-(6R,7R)-6-([1,1′-biphenyl]-3-ylmethyl)-5-((R)-oxetane-2-carbonyl)-5-azaspiro[2.4]heptan-7-yl)-2-methylcyclopropane-1-sulfonamide]	10 to 100 nM	90 to 100%	
[2H]C([2H])([2H])c1cccc(-c2cccc(C[C@H]3[C@@H](NS(=O)(=O)CF)C4(CC4)CN3C(=O)[C@H]3CCO3)c2F)c1 [Compound 229, 1-fluoro-N-((6S,7S)-6-((2-fluoro-3′-(methyl-d3)-[1,1′-biphenyl]-3-yl)methyl)-5-((R)-oxetane-2-carbonyl)-5-azaspiro[2.4]heptan-7-yl)methanesulfonamide]	0.0794 to 1 nM	90 to 100%	
